{"source": "patent US20060039943A1", "about": "“Acetyl-CoA carboxylase inhibitors for use as pesticides” (Yissum Research Development Company fo the Hebrew University, priority 2003, published 2006)", "key": {"[1]": {"tested_on": "pheromone glands", "test": "de novo pheromone production by isolated pheromone glands in vitro (radiolabel incorporation)", "type": "cell-based, Helicoverpa (Heliothis) armigera", "conditions": "for inhibition of Hez-PBAN-activated sex pheromone production: Hez-PBAN 0.05 μM, inhibitor in μM range, FIG. 3", "from_the_text": "(§1) Two distinct assay systems were applied in order to determine the inhibition of PBAN-induced pheromone production, elicited by aryloxyphenoxy propionates and cyclohexandione oximes such as diclofop, diclofop-methyl and tralkoxydim. The first assay monitors de novo pheromone production by isolated pheromone glands in vitro according to the method of Rafaeli and Gileadi^7 (Experimental Section). The second assay, monitors sex pheromone production in vivo by decapitated female moths that are incapable of pheromone production unless stimulated by PBAN (Experimental section).\nIntersegmental membranes (pheromone glands) between the eighth and ninth abdominal segments were removed from 2-3 day old virgin females. After 1 h preincubation in Pipes buffered incubation medium (pH 6.6), pheromone glands were dried on tissue paper and then transferred individually to 10 μl incubation medium containing 0.25 μCi [1-^14C]-acetate (56 mCi/mmole, NEN, Boston, USA) in the presence or absence of Hez-PBAN (Peninsula Labs, Belmont, Calif., USA) and in the additional presence or absence of either diclofop acid or diclofop methyl ester (FIG. 3).\nIncubations were performed for 3 h at room temperature. In order to measure the incorporation of radiolabel from [1-^14C] sodium acetate, the glands were extracted in 200 μl hexane for 0.5 h at room temperature and a 100 μl aliquot of the upper hexane phase was measured in a β-counter. Relative levels of incorporation into the pheromone component were determined using HPLC analysis as reported previously^9 using a Vydac C18 reversed phase column and a linear gradient from 40-55% acetonitrile. Fractions were collected every minute and radioactivity determined. The radioactive elution profile (shown in FIG. 8) was compared to known elution times of standard palmitic acid, Z11-hexadecenol and the main pheromone product of H. armigera^10, Z11-hexadecenal (Sigma, USA). In some experiments [1-^14C]-acetyl CoA (Amersham Pharmacia Biotech, UK.) or [9, 10-^3H]-palmitic acid (Life Science Products, Inc, Texas, USA) were substituted for [1-^14C]-acetate in order to measure relative incorporation into pheromone from these precursors. The effect of palmitoyl CoA (Sigma) was also tested in a different set of experiments using [^14C]-acetate as precursor (as shown in FIG. 2)."}, "[2]": {"tested_on": "decapitated female moths", "test": "sex pheromone production in vivo by decapitated female moths", "parameters": "species or system Helicoverpa (Heliothis) armigera", "conditions": "diclofop acid 10 μmol/female, PBAN 1 pmol/female, FIG. 7", "from_the_text": "as §1\nIn vivo sex pheromone production by female moths was determined in 2-day old females. The females were decapitated during the photophase of day 1 and subsequently maintained for an additional 24 h, after which they were injected with either physiological saline (control) or 1 pmol/moth Hez-PBAN in saline, and in the additional presence or absence of diclofop acid. Ovipositor tips (containing pheromone glands) were removed 2 h after injection and extracted for 10 min in hexane, containing 25 ng tridecanyl acetate (Sigma, USA) as internal standard. […] Z11-hexadecenal was quantified using the internal standard quantification methods as described previously^9."}, "[3]": {"tested_on": "ACCase enzyme", "test": "Inhibition of ACCase (partially purified enzyme from pheromone glands)", "type": "biochemical, Helicoverpa (Heliothis) armigera", "conditions": "in vitro, enzyme from pheromone producing tissue, FIG. 6", "from_the_text": "The […] enzyme was extracted from pheromone glands separated on TMAE column and the eluted enzyme was used. Acetyl CoA was used as a substrate that requires HCO3^- where radiolabeled HCO3^- was used. In the presence of the enzyme, the substrate will be converted to radiolabeled malonyl CoA (see FIG. 1). Therefore, the difference in the level of incorporation of the radiolabeled malonyl CoA in the presence and absence of the […] enzyme was used to obtain the activity level of endogenous […] in the presence or absence of herbicides (FIG. 6)."}, "[4]": {"tested_on": "bees and beneficial insects", "conditions": "field conditions; cited from earlier work"}}}
{"smiles": "CC(Oc1ccc(Oc2ccc(Cl)cc2Cl)cc1)C(=O)O", "note": "(centres unmarked) [diclofop acid]", "values": [{"measurement": "inhibition of Hez-PBAN-activated sex pheromone production", "setting": "[1]; in vitro", "value": "significantly inhibits"}, {"measurement": "inhibition of in vivo synthesis of pheromone Z11-hexadecenal induced by PBAN", "setting": "[2]", "value": "inhibited the production of the pheromone"}, {"measurement": "inhibition of partially purified ACCase enzyme activity", "setting": "[3]", "value": "may inhibit directly"}, {"measurement": "toxicity to bees and beneficial insects", "setting": "[4]", "value": "relatively non-toxic"}]}
{"smiles": "COC(=O)C(C)Oc1ccc(Oc2ccc(Cl)cc2Cl)cc1", "note": "(centres unmarked) [diclofop-methyl]", "values": [{"measurement": "inhibition of Hez-PBAN-activated sex pheromone production", "setting": "[1]; in vitro", "value": "significantly inhibits pheromone production to the same extent as the acid"}]}
{"smiles": "CCCCCCCCCCCCCCCC(=O)O", "note": "[palmitic acid]", "values": [{"measurement": "effect on the pheromonotropic action of PBAN", "setting": "[1]; addition of palmitic acid, data not shown", "value": "did not affect"}]}
{"smiles": "CCCCCCCCCCCCCCCC(=O)SCCNC(=O)CCNC(=O)[C@H](O)C(C)(C)COP(=O)(O)OP(=O)(O)OC[C@H]1O[C@@H](n2cnc3c(N)ncnc32)[C@H](O)[C@@H]1OP(=O)(O)O", "note": "[palmitoyl-CoA]", "values": [{"measurement": "effect on production of pheromone", "setting": "[1]; in vitro, 0.01 μM Hez-PBAN, 14C-acetate, FIG. 2", "value": "inhibiting its biosynthesis"}]}
{"smiles": "CCO/N=C(\\CC)C1=C(O)CC(c2c(C)cc(C)cc2C)CC1=O", "note": "(centres unmarked) [tralkoxydim]", "values": [{"measurement": "concentration at which the inhibitory effect occurs", "setting": "[1]; in vitro, Hez-PBAN 0.01 μM, FIG. 5", "value": 100, "unit": "µM"}]}
